Test results from patent publication US20260200925A1, “SMALL MOLECULE INHIBITORS OF KRAS MUTATED PROTEINS” (MERCK SHARP & DOHME LLC, priority 2021, published 2026).
Where a name gives a salt, the structure may show the parent alone.

Columns and labels:
[1] = target: G13D (Homo sapiens, UniProt P01116, G13D); assay: Guanine nucleotide exchange (GNE) assay, G13D; type: biochemical
Procedure: (§1) The TR-FRET signal is measured on an Envision (PerkinElmer) plate reader: Excitation filter=340 nm; emission 1=495 nm; emission 2=520 nm; dichroic mirror=D400/D505; delay time=100 ms. The signal of each well is determined as the ratio of the emission at 520 nm to that at 495 nm. […] The apparent effect as a function of compound concentration is fit to a four-parameter logistic equation to calculate IC50 values using Spotfire software.

[2] = system: AsPC-1 cells containing homozygous KRAS-G12D activating mutation (p-ERK); conditions: Homo sapiens, ASPC1, 2 h, read-out: KRAS G12D ASPC-1 IC50 (nM)
Procedure: Procedure for Cellular Phospho-ERK Assay, G12D
AsPC-1 cells (ATCC® CRL-1682™), containing homozygous KRAS-G12D activating mutation, were cultured in T150 flask in growth medium (RPMI medium 1640-GlutaMAX™—I (ThermoFisher Scientific 61870) containing 10% fetal bovine serum (ThermoFisher Scientific 10091148)). The cells were harvested in growth medium after TrypLE (ThermoFisher scientific 12604021) digestion and were seeded in a 384-well collagen coated cell culture plate (Corning 356702) at a density of 15,000 cells/well, and incubated at 37° C., 5% CO2 overnight. […] RPMI medium 1640-GlutaMAX™—I was added to the intermediate plate and the contents of the intermediate plate were then transferred to the 384-well collagen coated cell culture plate, which was incubated at 37° C., 5% CO2 for 2 hours. After removal of medium from the collagen coated cell culture plate, cells were lysed in lysis buffer from Alpha SureFire® Ultra™ Multiplex p-ERK and total ERK assay kit (PerkinElmer MPSU-PTERK) containing Halt™ Protease and Phosphatase inhibitor cocktail (ThermoFisher Scientific 78446) at room temperature with constant shaking at 300 rpm for 30 minutes. The cell lysates were then transferred to an OptiPlate-384 plate (PerkinElmer 6005620), and the phosphorylation of ERK (p-ERK) and total ERK levels were detected by Alpha SureFire® Ultra™ Multiplex p-ERK kit and total ERK assay kit (PerkinElmer MPSU-PTERK) following the manufacturer's protocol. Assay plates were read on a EnVision Multimode Plate Reader (PerkinElmer), and the ratio of p-ERK vs. total ERK in each well was used as the final readout. Dose response curves were analyzed using a 4-parameter logistic model to calculate IC50 values using Spotfire software.

[3] = target: Recombinant KRAS-G12D (SEQ ID NO: 2) (Homo sapiens, UniProt P01116, G12D); assay: SOS-catalyzed guanine nucleotide exchange (GNE) assay, KRAS-G12D
Procedure: (§2) Specifically, the SOS-catalyzed nucleotide exchange assay utilizes a preformed time-resolved fluorescence resonance energy transfer (TR-FRET) complex containing a specific biotinylated RAS protein (KRAS-G12C/V/D, HRAS, NRAS; described above) with BODIPY-GDP, and Terbium-streptavidin. Test compounds are preincubated with this complex for 60 minutes.
(§3) To assemble the preformed TR-FRET complexes, each biotinylated RAS protein is diluted to 2 μM in an EDTA Buffer (20 mM HEPES, 50 mM sodium chloride, 10 mM EDTA, and 0.01% Tween) and incubated at room temperature for one hour. This mixture is then further diluted to 90 nM in an Assay Buffer (20 mM HEPES, 150 mM sodium chloride, 10 mM magnesium chloride, and 0.005% Tween) containing 15 nM of Terbium-Streptavidin (Invitrogen, catalog #PV3577) and 900 nM of BODIPY-GDP (Invitrogen, catalog #G22360) and incubated at room temperature for six hours. It should be noted that this preformed TR-FRET complex for each of the RAS proteins was made ahead of time, aliquoted and stored at −80° C. until the day of the experiment.
(§4) Once titrations are made, 10 nL of the diluted compounds is acoustically dispensed into a 384-well assay plate (Corning, catalog #3820) using an Echo 550 (Labcyte). Each well of the assay plate subsequently receives 3 μL of a specific 3× RAS preformed TR-FRET complex and 3 μL of Assay Buffer and is incubated at room temperature for 60 minutes (preincubation time). […] The final reaction in each well of 9 μL consists of 3 mM GTP, and the specific RAS and SOS proteins in the following concentrations: KRAS-G12C/SOS=3 nM/40 nM, KRAS-G12D/SOS=1 nM/40 nM, KRAS-G12V/SOS=1.25 nM/160 nM, HRAS/SOS=1.25 nM/40 nM, and NRAS/SOS=1.25 nM/40 nM.
as §1

[4] = target: Recombinant KRAS-G12V (SEQ ID NO: 3) (Homo sapiens, UniProt P01116, G12V); assay: SOS-catalyzed guanine nucleotide exchange (GNE) assay, KRAS-G12V
Procedure: as §2, §3, §4, §1

[5] = system: NCI-H358 cells containing homozygous KRAS-G12C activating mutation (p-ERK); conditions: Homo sapiens, NCI-H358, 2 h, read-out: G12C H358 IC50 (nM)
Procedure: Procedure for Cellular Phospho-ERK Assay, G12C
NCI-H358 cells (ATCC® CRL-5807™), containing homozygous KRAS-G12C activating mutation, were cultured in T150 flask in growth medium (RPMI medium 1640-GlutaMAX™—I (ThermoFisher Scientific 61870) containing 10% fetal bovine serum (ThermoFisher Scientific 10091148)). The cells were harvested in growth medium after TrypLE (ThermoFisher scientific 12604021) digestion and were seeded in a 384-well collagen coated cell culture plate (Corning 356702) at a density of 15,000 cells/well, and incubated at 37° C., 5% CO2 overnight. […] RPMI medium 1640-GlutaMAX™—I was added to the intermediate plate and the contents of the intermediate plate were then transferred to the 384-well collagen coated cell culture plate, which was incubated at 37° C., 5% CO2 for 2 hours. After removal of medium from the collagen coated cell culture plate, cells were lysed in lysis buffer from Alpha SureFire® Ultra™ Multiplex p-ERK and total ERK assay kit (PerkinElmer MPSU-PTERK) containing Halt™ Protease and Phosphatase inhibitor cocktail (ThermoFisher Scientific 78446) at room temperature with constant shaking at 300 rpm for 30 minutes. The cell lysates were then transferred to an OptiPlate-384 plate (PerkinElmer 6005620), and the phosphorylation of ERK (p-ERK) and total ERK levels were detected by Alpha SureFire® Ultra™ Multiplex p-ERK kit and total ERK assay kit (PerkinElmer MPSU-PTERK) following the manufacturer's protocol. Assay plates were read on an EnVision Multimode Plate Reader (PerkinElmer), and the ratio of p-ERK vs. total ERK in each well was used as the final readout. Dose response curves were analyzed using a 4-parameter logistic model to calculate IC50 values using Spotfire software.

Sequence of Recombinant KRAS-G12V (SEQ ID NO: 3) (P01116 with tags, fused parts or gaps isoform P01116-2 G12V): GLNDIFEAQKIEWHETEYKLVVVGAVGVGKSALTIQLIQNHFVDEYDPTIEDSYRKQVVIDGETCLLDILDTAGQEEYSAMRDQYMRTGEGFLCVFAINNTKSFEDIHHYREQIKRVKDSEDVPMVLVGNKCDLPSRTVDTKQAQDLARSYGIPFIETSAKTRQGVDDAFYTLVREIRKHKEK
Sequence of Recombinant KRAS-G12D (SEQ ID NO: 2) (P01116 with tags, fused parts or gaps isoform P01116-2 G12D): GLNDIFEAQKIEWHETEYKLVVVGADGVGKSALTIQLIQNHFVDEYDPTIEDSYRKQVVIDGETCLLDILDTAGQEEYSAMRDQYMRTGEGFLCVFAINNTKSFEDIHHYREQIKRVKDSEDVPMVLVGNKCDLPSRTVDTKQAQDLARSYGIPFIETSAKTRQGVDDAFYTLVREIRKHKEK
Sequence of G13D (P01116 1-188 isoform P01116-2 G13D): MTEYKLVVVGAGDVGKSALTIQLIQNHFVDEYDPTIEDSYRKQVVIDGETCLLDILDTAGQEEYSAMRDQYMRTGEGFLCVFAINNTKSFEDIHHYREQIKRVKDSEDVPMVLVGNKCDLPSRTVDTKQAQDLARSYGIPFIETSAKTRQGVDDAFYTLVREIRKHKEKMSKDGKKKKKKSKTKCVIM

C#Cc1cccc2cc(O)cc(-c3c(F)cc4c(N5CCC[C@@](C)(O)C5)nc(OCC5(CN(C)C)CC5)nc4c3F)c12 (single isomer, unassigned) [Ex-11] was tested, and the IC50 [1] was 0.002 µM, the IC50 [2] was 132 nM and the IC50 [3] was 0.001 µM. For the same compound, the IC50 [4] was 0.002 µM.

In the case of CC1CN(c2nc(OC[C@@]34CCCN3C[C@H](F)C4)nc3c(F)c(-c4cc(O)cc5cccc(Cl)c45)c(F)cc23)CC(C)(O)C1 (single isomer, unassigned) [Ex-33], the IC50 [1] is reported as 0.086 µM, the IC50 [3] is reported as 0.163 µM and the IC50 [4] is reported as 0.143 µM.

C#Cc1cccc2cccc(-c3c(F)cc4c(N5CCC[C@](C)(O)C5)nc(OC[C@@]56CCCN5C[C@H](F)C6)nc4c3F)c12 (single isomer, unassigned) [Ex-46] showed an IC50 [1] of 0.291 µM, an IC50 [2] of 4690 nM and an IC50 [3] of 0.986 µM. It also gave an IC50 [4] of 0.168 µM.

COC1CCN(CC2(COc3nc(N4CCC[C@@](C)(O)C4)c4cc(F)c(-c5cc(O)cc6cccc(Cl)c56)c(F)c4n3)CC2)CC1 [Ex-5, (3R)-1-(7-(8-chloro-3-hydroxnagphthalen-1-yl)-6,8-difluoro-2-((1-((4-methoxypiperidin-1-yl)methyl)cyclopropyl)methoxy)quinazolin-4-yl)-3-methylpiperidin-3-ol] showed an IC50 [2] of 1150 nM.

With C[C@@]1(O)CCCN(c2nc(OCC3(CN4CCC(F)CC4)CC3)nc3c(F)c(-c4cc(O)cc5cccc(Cl)c45)c(F)cc23)C1 [Ex-6, (3R)-1-(7-(8-chloro-3-hydroxynaphthalen-1-yl)-6,8-difluoro-2-((1-((4-fluoropiperidin-1-yl)methyl)cyclopropyl)methoxy)quin-azolin-4-yl)-3-methylpiperidin-3-ol] the IC50 [2] was 3050 nM.

In the case of C#Cc1cccc2cc(O)cc(-c3c(F)cc4c(N5CCC[C@@](C)(O)C5)nc(OCC5(CN6CCC(OC)CC6)CC5)nc4c3F)c12 [Ex-7, (3R)-1-(7-(8-ethynyl-3-hydroxvnaphthalen-1-yl)-6,8-difluoro-2-((1-((4-methoxypiperidin-1-yl)methyl)cyclopropyl)methoxy)quinazolin-4-yl)-3-methylpiperidin-3-ol], the IC50 [2] is reported as 95 nM.

C#Cc1cccc2cc(O)cc(-c3c(F)cc4c(N5CCC[C@@](C)(O)C5)nc(OCC5(CN6CC[C@@H](F)C6)CC5)nc4c3F)c12 [Ex-12, (3R)-1-(7-(8-ethyny1-3-hydroxynaphthalen-1-yl)-6,8-difluoro-2-((1-(((R)-3-fluoropyrrolidin-1-yl)methyl)cyclopropyl)meth-oxy)quinazolin-4-yl)-3-methylpiperidin-3-ol] was tested, and the IC50 [2] was 86 nM and the IC50 [5] was 41 nM.

With CN(C)C[C@@]1(COc2nc(N3CCC[C@@](C)(O)C3)c3cc(F)c(-c4cccc5ccc(F)c(Cl)c45)c(F)c3n2)CC1(F)F [Ex-14, (3R)-1-(7-(8-chloro-7-fluoronaphthalen-1-yl)-2-(((R)-1-((dimethylamino)methyl)-2,2-difluorocyclopropyl)methoxy)-6,8-difluoroquinazolin-4-yl)-3-methylpiperidin-3-ol] the IC50 [1] was 5.19 µM, the IC50 [3] was 1.19 µM and the IC50 [4] was 1.23 µM.

With C#Cc1cccc2cc(O)cc(-c3ccc4c(N5CCC[C@@](C)(O)C5)nc(OCC5(CN(C)C)CC5)nc4c3F)c12 [Ex-16, (R)-1-(2-((1-((dimethylamino)methyl)cyclopropyl)methoxy)-7-(8-ethynyl-3-hydroxynaphthalen-1-yl)-8-fluoroquinazolin-4-yl)-3-methylpiperidin-3-ol] the IC50 [2] was 352 nM and the IC50 [5] was 123 nM.

Nc1nc2c(-c3c(Cl)cc4c(N5CCCC(O)CC5)nc(OC[C@@]56CCCN5C[C@H](F)C6)nc4c3F)c(F)cc(F)c2o1 (stereo partly drawn) [Ex-25, 1-(7-(2-amino-5,7-difluorobenzo[d]oxazol-4-yl)-6-chloro-8-fluoro-2-(((2R,7aS)-2-fluorotetrahydro-1H-pyrrolizin-7a(5H)-yl)methoxy)quinazolin-4-yl)azepan-4-ol] gave an IC50 [2] of 1400 nM and an IC50 [5] of 611 nM.

For Oc1cc(-c2c(F)cc3c(N4CCC[C@@H](O)C4)nc(OC[C@@]45CCCN4C[C@H](F)C5)nc3c2F)c2c(Cl)cccc2c1 [Ex-27, (3R)-1-(7-(8-chloro-3-hydroxynaphthalen-1-yl)-6,8-difluoro-2-(((2R,7aS)-2-fluorotetrahydro-1H-pyrrolizin-7a(5H)-yl)methoxy)quinazolin-4-yl)piperidin-3-ol], the IC50 [2] was 3840 nM.

C[C@@H]1C[C@@H](O)CN1c1nc(OC[C@@]23CCCN2C[C@H](F)C3)nc2c(F)c(-c3cc(O)cc4cccc(Cl)c34)c(F)cc12 [Ex-28, (3R,5R)-1-(7-(8-chloro-3-hydroxynaphthalen-1-yl)-6,8-difluoro-2-(((2R,7aS)-2-fluorotetrahydro-1H-pyrrolizin-7a(5H)-yl)methoxy)quinazolin-4-yl)-5-methylpyrrolidin-3-ol] was tested, and the IC50 [2] was 1220 nM and the IC50 [5] was 2260 nM.

For C[C@@]1(O)CCCN(c2nc(OC[C@]3(CO)CC3(F)F)nc3c(F)c(-c4cc(O)cc5cccc(Cl)c45)c(F)cc23)C1 [Ex-30, (3R)-1-(7-(8-chloro-3-hydroxynaphthalen-1-yl)-2-(((R)-2,2-difluoro-1-(hydroxymethyl)cyclo-propyl)methoxy)-6,8-difluoroquinazolin-4-yl)-3-methylpiperidin-3-ol], the IC50 [2] was 3150 nM and the IC50 [5] was 512 nM.

Compound Oc1cc(-c2c(F)cc3c(N4CCC[C@H](O)CC4)nc(OC[C@@]45CCCN4C[C@H](F)C5)nc3c2F)c2c(Cl)cccc2c1 [Ex-35, (4S)-1-(7-(8-chloro-3-hydroxynaphthalen-1-yl)-6,8-difluoro-2-(((2R,7aS)-2-fluorotetrahydro-1H-pyrrolizin-7a(5H)-yl)methoxy)quinazolin-4-yl)azepan-4-ol] has an IC50 [2] of 4840 nM and an IC50 [5] of 1820 nM.

In the case of C[C@@]1(O)COCCN(c2nc(OC[C@@]34CCCN3C[C@H](F)C4)nc3c(F)c(-c4cc(O)cc5cccc(Cl)c45)c(F)cc23)C1 [Ex-37, (6S)-4-(7-(8-chloro-3-hydroxynaphthalen-1-yl)-6,8-difluoro-2-(((2R,7aS)-2-fluorotetrahydro-1H-pyrrolizin-7a(5H)-yl)methoxy)quinazolin-4-yl)-6-methyl-1,4-oxazepan-6-ol], the IC50 [2] is reported as 151 nM and the IC50 [5] is reported as 48 nM.

Work on Cc1cc2[nH]ncc2c(-c2c(F)cc3c(N4CCC[C@@](C)(O)C4)nc(OCC4(CN5CC[C@@H](F)C5)CC4)nc3c2F)c1C [Ex-39, (3R)-1-(7-(5,6-dimethy1-1H-indazol-4-yl)-6,8-difluoro-2-((1-(((R)-3-fluoropyrrolidin-1-yl)methyl)cyclopropyl)methoxy)quinazolin-4-yl)-3-methylpiperidin-3-ol] yielded an IC50 [1] of 2.66 µM, an IC50 [3] of 2.71 µM and an IC50 [4] of 2.29 µM.

Work on C#Cc1cccc2cc(O)cc(-c3c(F)cc4c(N5CCC[C@@](C)(O)C5)nc(OC[C@]5(CO)CC5(F)F)nc4c3F)c12 [Ex-44, (3R)-1-(2-(((R)-2,2-difluoro-1-(hydroxy-methyl)cyclopropyl)methoxy)-7-(8-ethynyl-3-hydroxynaphthalen-1-yl)-6,8-difluoroquinazolin-4-yl)-3-methylpiperidin-3-ol] yielded an IC50 [2] of 142 nM and an IC50 [5] of 59 nM.

CN1CCC[C@H]1COc1nc(N2CCC[C@@](C)(O)C2)c2cc(F)c(-c3cc(O)cc4cccc(Cl)c34)c(F)c2n1 [Ex-49, (3R)-1-(7-(8-chloro-3-hydroxynaphthalen-1-yl)-6,8-difluoro-2-(((S)-1-methylpyrrolidin-2-yl)methoxy)quinazolin-4-yl)-3-methylpiperidin-3-ol trifluoracetate salt] showed an IC50 [2] of 690 nM and an IC50 [5] of 427 nM.
